Source: the NIST ThermoML archive (doi:10.1016/j.fluid.2007.11.005)

Settings: Liquid, Bellows volumetry

CCCCCCCCOS(=O)(=O)[O-].CCCCn1cc[n+](C)c1 [1-butyl-3-methylimidazolium octyl sulfate]
mass density [kg/m3]
Settings | 393.1 K | 413 K | 432.9 K | 452.7 K | 472.6 K
10000 kPa | – | 1004 | 992 | 978 | 964
20000 kPa | – | 1011 | 999 | 985 | 972
30000 kPa | – | 1017 | 1006 | 992 | 980
40000 kPa | – | 1023 | 1012 | 999 | 987
50000 kPa | – | 1029 | 1018 | 1005 | 993
60000 kPa | – | 1034 | 1023 | 1011 | 999
70000 kPa | – | 1039 | 1029 | 1017 | 1005
80000 kPa | – | 1044 | 1034 | 1022 | 1011
90000 kPa | – | 1049 | 1038 | 1027 | 1016
100000 kPa | – | 1053 | 1043 | 1032 | 1021
110000 kPa | – | 1057 | 1048 | 1036 | 1026
120000 kPa | – | 1062 | 1052 | 1041 | 1030
130000 kPa | – | 1066 | 1056 | 1045 | 1035
140000 kPa | – | 1069 | 1060 | 1049 | 1039
150000 kPa | – | 1073 | 1064 | 1053 | 1043
160000 kPa | 1086 | 1077 | 1068 | 1057 | 1047
170000 kPa | 1089 | 1080 | 1071 | 1061 | 1051
180000 kPa | 1093 | 1084 | 1075 | 1065 | 1055
190000 kPa | 1096 | 1087 | 1078 | 1068 | 1059
200000 kPa | 1099 | 1091 | 1082 | 1072 | 1062
